Article PMC12655733, “Design, Synthesis and Evaluation of the First 2-Alkynyl(aza)indole ^18F Probe Targeting α-Synuclein Aggregates” (Pharmaceuticals, 2025)

Legend:
α-syn in MSA tissues = target: α-syn in MSA tissues; design: method as in PMID 38352848; conditions: cited from earlier work
[1] = target: T1, Tau fibrils (isoform h2N4RTau) (Homo sapiens, UniProt P10636); assay: Inhibition of thioflavin T binding to Tau fibrils (fluorescence competition), Ki determination; conditions: calculated from IC50, competition with ThT 500 nM, fibrils 200 nM, mean ± SD of 3 experiments
T1 construct: made in house; host or cells: Escherichia coli BL21(DE3), pET11d vector
Experimental: (§1) Wild-type α-syn and Aβ1-42 were expressed in the Escherichia coli strain BL21(DE3) (Stratagene, La Jolla, CA, USA) and purified as described. […] For the Aβ1-42 peptide, the concentration was determined by a fluorometric method using the reactive compound fluorescamine (Sigma, San Jose, CA, USA) that reacts with primary amino groups to form a fluorescent product. The human Tau protein (isoform h2N4RTau) was expressed in the pET11d vector in the Escherichia coli strain BL21(DE3) (Stratagene, La Jolla, CA, USA) and purified as described.
(§2) For assembly into fibrils, α-syn was incubated in 50 mM Tris-HCl, pH 7.5, 150 mM KCl at 37 °C under continuous shaking for 4 days. Lyophilized Aβ1-42 was dissolved in 1,1,1,3,3,3-hexafluoro-2-propanol (HFIP) at a concentration of 0.2 mg/mL and incubated for 24 h at 37 °C to achieve complete solubilization. HFIP was evaporated under a nitrogen stream to obtain a dry film. To start assembly into fibrils, the dry peptide was resuspended in PBS pH 7.4, 10% (v/v) DMSO and incubated at 37 °C without shaking for 3 days. The Tau protein was assembled in fibrils in a PBS buffer containing 1 mM of DTT in the presence of 1/12 heparin (v/v) at 37 °C under shaking. […] Protein fibrils were systematically examined by transmission electron microscopy (TEM) in a Jeol 1400 transmission electron microscope following adsorption onto carbon-coated 200 mesh grids and negative staining with 1% uranyl acetate. The images were recorded with a Gatan Orius CCD camera (Gatan, Pleasanton, CA, USA). Finally, the percentage of α-syn or Aβ1-42 aggregated into fibrils was assessed by pelleting fibrils at 40,000× g for 20 min and by determining the concentration of soluble protein/peptide remaining in the supernatant.
(§3) The samples were incubated for 1 h at room temperature to achieve complete equilibration.

[2] = target: T1, Tau fibrils (isoform h2N4RTau); assay: Direct fluorescence titration on Tau fibrils: Kd and Bmax; type: binding
Excerpt: (§4) In view of the interesting properties of compounds 33–39, we decided to switch to azaindole structures and to study the impact of the position of the nitrogen atom in the 6-membered ring on binding to fibrils. At this step we measured, in addition to the Ki values, the direct binding of each compound to fibrils through the fluorescence in the fraction bound to fibrils, which allowed us to determine the affinity values (Kd, Table 1). […] We therefore prepared a fluorinated derivative of compound 43, i.e., 45.
(§5) Fresh solutions of each tested compound (2.5 mM in DMSO) were diluted in PBS pH 7.4 at concentrations ranging from 0.5 nM to 5 µM in the presence or absence of α-syn, Aβ1-42, or Tau fibrils (200 nM, 500 nM, or 200 nM, respectively) in a final volume of 2 mL. After 1 h incubation at room temperature, the binding of each compound to α-syn, Aβ1-42, or Tau fibrils was assessed by fluorescence measurements using the appropriate excitation/emission wavelengths (i.e., those yielding the highest fluorescence ratio between fibril-bound and free compound). For any given concentration of compound added to the fibrils, the concentrations of compound bound to the fibrils and free in solution were determined on the basis of the measured fluorescence. Since at each point of the titration: Fm = FB × B + FF × (T − B) where Fm is the measured fluorescence of the compound in the presence of fibrils at a given compound concentration T, FB is the specific molar fluorescence of the bound compound, FF is the specific molar fluorescence of the free compound, and B is the concentration of compound bound to the fibrils at any point of the titration. FF was determined by measuring the fluorescence of known compound concentrations in the absence of fibrils. FB was determined by measuring the maximum fluorescence of known compound concentrations upon saturation with α-syn, Aβ1-42, or Tau fibrils.
(§6) Therefore, at each point of the titration, the concentration of bound compound B could be determined and was B = (Fm − FF × T)/FB − FF. The B values thus determined versus the respective concentrations of free compound were analyzed by fitting to the Michaelis-Menten equation.

α-syn fibrils [3] = target: T2, α-syn fibrils (Homo sapiens, UniProt P37840); assay: Direct fluorescence titration on α-syn fibrils: Kd and Bmax; type: binding
T2 construct: made in house; host or cells: Escherichia coli BL21(DE3)
Excerpt: as §4, §5, §6

Aβ1-42 fibrils [4] = target: T3, Aβ1-42 fibrils (Homo sapiens, UniProt P05067); assay: Inhibition of thioflavin T binding to Aβ1-42 fibrils (fluorescence competition), Ki determination; conditions: calculated from IC50, competition with ThT 500 nM, fibrils 500 nM, mean ± SD of 3 experiments; read-out: Ki Aβ
T3 construct: Wild-type α-syn and Aβ1-42 were expressed; made in house; host or cells: Escherichia coli BL21(DE3)
Experimental: as §1, §2, §3

Aβ1-42 fibrils [5] = target: T3, Aβ1-42 fibrils; assay: Direct fluorescence titration on Aβ1-42 fibrils: Kd and Bmax; type: binding; conditions: for Kd: direct assay on fibrils, mean ± SD of 3 experiments, read-out: Kd Aβ
Excerpt: as §4, §5, §6

Aβ1-42 fibrils [6] = assay: as above; type: binding; conditions: from Kd values
Excerpt: as §4, §5, §6

α-syn fibrils [7] = target: T2, α-syn fibrils; assay: Inhibition of thioflavin T binding to α-syn fibrils (fluorescence competition), Ki determination; conditions: calculated from IC50, competition with ThT 500 nM, fibrils 200 nM, mean ± SD of 3 experiments
Experimental: as §1, §2, §3

[8] = Octanol–water partition coefficient at pH 7.4 (LogD); type: physicochemical; conditions: pH 7.4, mean ± SD on three independent experiments
[9] = direct assay on fibrils, mean ± SD of 3 experiments
[10] = density of binding sites, Scatchard analysis

T1 sequence (P10636 1-441 isoform P10636-8): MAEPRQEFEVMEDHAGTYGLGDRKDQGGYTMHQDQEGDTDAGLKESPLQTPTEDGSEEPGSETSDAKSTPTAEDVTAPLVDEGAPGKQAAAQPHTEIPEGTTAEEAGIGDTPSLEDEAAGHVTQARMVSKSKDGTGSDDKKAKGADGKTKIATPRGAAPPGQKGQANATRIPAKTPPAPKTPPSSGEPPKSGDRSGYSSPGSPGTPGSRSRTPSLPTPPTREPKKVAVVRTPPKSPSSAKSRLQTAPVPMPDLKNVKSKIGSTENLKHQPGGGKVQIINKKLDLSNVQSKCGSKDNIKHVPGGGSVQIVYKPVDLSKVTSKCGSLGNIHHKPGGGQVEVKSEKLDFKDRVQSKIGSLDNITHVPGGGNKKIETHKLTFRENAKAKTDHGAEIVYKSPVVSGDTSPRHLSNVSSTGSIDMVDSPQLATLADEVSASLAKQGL
T3 sequence (P05067 672-713): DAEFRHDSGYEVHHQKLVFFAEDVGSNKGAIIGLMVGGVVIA

Compound | Kd (α-syn in MSA tissues) [nM] | Ki [1] [nM] | Kd [2, 9] [nM] | Kd Tau [2, 9] | Kd (α-syn fibrils [3]; [9]) [nM] | Kd α-Syn (α-syn fibrils [3]; [9]) | Ki (Aβ1-42 fibrils [4]) [nM] | Kd (Aβ1-42 fibrils [5]) [nM] | reduction of affinity for Aβ versus α-syn and tau fibrils (Aβ1-42 fibrils [6]) [fold] | Ki (α-syn fibrils [7]) [nM] | logD [8] | tau monomers per 1 compound bound ([2]; corresponding to Bmax) [tau monomers] | Bmax on tau fibrils [2, 10] [nmol/µmol tau fibrils] | α-syn monomers per 1 compound bound (α-syn fibrils [3]; corresponding to Bmax) | Bmax on α-syn fibrils (α-syn fibrils [3]; [10]) [nmol/µmol α-syn fibrils] | Aβ monomers per 1 compound bound (Aβ1-42 fibrils [5]; corresponding to Bmax) [Aβ monomers] | Bmax on Aβ fibrils (Aβ1-42 fibrils [5]; [10]) [nmol/µmol Aβ fibrils]
O=C1c2cn(-c3ccc(N4CC[C@@H]([18F])C4)nc3)nc2CN1c1cccnc1 [[^18F] ACI-12589] | 22 to 30 |  |  |  |  |  |  |  |  |  |  |  |  |  |  |  | 
CN(C)c1ccc(C#Cc2cc3cccnc3[nH]2)cc1 [Compound 43] |  | 4.61 ± 0.2 | 0.44 ± 0.1 | sub-nanomolar | 0.53 ± 0.2 | sub-nanomolar | 24.4 ± 9 | 11.8 ± 3 | 20 | 4.7 ± 2 |  |  |  |  |  |  | 
CN(CCF)c1ccc(C#Cc2cc3cccnc3[nH]2)cc1 [Compound 45] |  |  | 0.97 ± 0.4 |  | 2.4 ± 1 |  |  | 1.2 ± 1 |  |  | 2.59 ± 0.141 | 20 | 46.6 ± 5.0 | 7 α-syn monomers | 141.1 ± 45 | 600 | 1.8 ± 0.6
